Columns and labels:
MPZ = assay: qPCR of transfected MPZ transcript (primers 296+297), normalized to GAPDH; assay type: cell-based; conditions: qPCR Rep 2, WT MPZ GFP 1000 ng, or empty traffo + Tg; for 2^-(deltaCq), MPZ: vs avg GAPDH
[1] = tested on: GADD34 mRNA in HCT116 cells; assay: qPCR of GADD34 transcript; assay type: cell-based, Homo sapiens; conditions: HCT116, 100 nM for 24 hours, norm to GAPDH
[2] = tested on: PARP / caspase 8 / caspase 3 in HCT116 cells; assay: Western blot of HCT116 lysates (PARP, caspase 8 and caspase 3 cleavage, DR5 level); assay type: cell-based, Homo sapiens; conditions: HCT116, 24 hr, titration of construct
Procedure: Media and cells for each sample were collected by cell scraping into cold PBS followed by a subsequent wash with 1 ml of cold PBS. The cell pellet was then resuspended in cold lysis buffer (30 mM HEPES pH 7.2, 150 mM NaCl, 1% Triton X100, 1x Roche protease inhibitor) and lysed via needle shearing on ice. Samples were centrifuged at 1000xg for 5 min, and the supernatants were mixed with sample buffer to a final concentration of 1% SDS, 62.5 mM Tris-HCl pH 6.8, 10% glycerol, 0.1% bromophenol blue, 50 mM DTT. Samples were boiled at 95°C and loaded on SDS-PAGE gels (GenScript). Samples were subsequently transferred onto nitrocellulose membranes, blocked with Odyssey buffer (Licor) for 1 hr at RT, and probed with primary antibodies diluted 1:1000 (unless otherwise specified) in Licor Odyssey buffer supplemented with 0.1% Tween 20% at 4°C overnight.
Bound primary antibodies were probed by HRP-conjugated secondary antibodies (Amersham, Piscataway, NJ, 1:10000) using enhanced chemiluminescence (SuperSignal; Thermo Scientific, Waltham, MA) detected by standard film or through the ChemiDoc XRS+ Imaging System (Bio-Rad).

[3] = tested on: DR5 / ERGIC53 / giantin in HCT116 cells; assay: Immunofluorescence co-localization (Pearson's correlation per cell); assay type: cell-based, Homo sapiens
Procedure: HCT116 were seeded at 25000 cells per well in an 8-well glass-bottom μSlide (Ibidi 80827) pre-coated with Collagen IV (Sigma-Aldrich C6745, 0.03 mg/ml in PBS incubated for 30 min at RT, and then rinsed off with PBS x 3) in growth media 18 hr prior to transfection (see above for protocol). 24 hr post-transfection, the cells were fixed using 4% paraformaldehyde (PFA, Electron Microscopy Sciences) or methanol, depending on the antibody combination used for immunostaining (see table below). Samples were protected from light after fixation to preserve GFP fluorescence.
For fixation with 4% PFA, 32% PFA was added directly to the well in growth media for a 1:8 dilution and incubated for 10–15 min at RT. Cells were then permeabilized with PHEM buffer (60 mM PIPES, 25 mM HEPES, 10 mM EGTA, 2 mM MgCl2-hexahydrate, pH 6.9) containing 0.1% Triton-X100 for 10 min at RT for three washes.
For fixation with methanol, media was removed and cells were washed with cold PBS. Then methanol (pre-cooled at −20°C) was added to the well and incubated at −20°C for 3–4 min. The methanol was promptly aspirated and replaced with PHEM buffer (without Triton X-100), followed by two more 10 min washes with PHEM at RT.
To block against non-specific antibody interactions, cells were rinsed in PHEM (without 0.1% Triton X-100) and then incubated with PHEM containing 2% normal goat serum (Jackson Immunoresearch Laboratories, 005-000-121) for 1 hr at RT. Primary antibodies were incubated in blocking solution overnight at 4°C at the dilution noted in the table above. Cells were then washed with PHEM buffer for 10 min at RT x three and incubated with secondary antibodies, anti-mouse-AlexaFluor546 (Invitrogen A11030) and anti-rabbit-AlexaFluor633 (Invitrogen A21071), diluted 1:1000 in PHEM with 2% normal goat serum. (Secondary antibody solutions were centrifuged at 15000xg for 20 mins at 4°C to remove aggregates prior to incubating with cell samples.) After a 1 hr incubation at RT, cells were washed with PHEM buffer once, then incubated with PHEM buffer containing nuclear stain (DAPI, Molecular Probes, Eugene, OR, D-1306, 5 μg/mL), and finally rinsed with PHEM buffer twice before imaging.
Samples were imaged on a spinning disk confocal with Yokogawa CSUX A1 scan head, Andor iXon EMCCD camera, and 40x Plan Apo air Objective NA 0.95 or 100x ApoTIRF objective NA 1.49 (Nikon).
From the 405 nm channel, cell nuclei were identified as primary objects using maximum correlation thresholding (MCT) and shape to distinguish clumped objects. Secondary objects were outlined using propagation from the nuclei (DAPI) after applying MCT from the 488 nm, 561 nm, and 633 nm channels. Tertiary objects for each cell was identified as the mask of each nucleus subtracted from the mask of its corresponding secondary object in each channel, yielding masks for intracellular GFP-tagged protein from the 488 nm channel, for intracellular DR5 from the 561 nm channel, and for the organelle marker in the 633 nm channel. For overlap between DR5 and MPZ/RHO-GFP, Pearson’s correlation coefficients were calculated within the MPZ/RHO mask for each cell to filter out untransfected cells. For overlap between DR5/MPZ and organelle markers, Pearson’s correlation coefficients were calculated within tertiary objects for the organelle marker in GFP+ cells. Statistical analyses for all data sets were performed using GraphPad Prism 6.0.

[4] = HCT116, 24 hr post-transfection, Mean ± SEM

## C/C=C(/C)C(=O)O[C@H]1C(C)=C2[C@H]([C@@H]1OC(=O)CCCCCCC)[C@@](C)(OC(C)=O)C[C@H](OC(=O)CCC)[C@@]1(O)[C@H]2OC(=O)[C@@]1(C)O [thapsigargin, reference compound]
MPZ; mean of 3
  avg. fold induction relative to WT MPZ DMSO, MPZ: 9.712 fold
MPZ; replicate 1
  fold induction relative to WT MPZ DMSO, MPZ: 3.402 fold
  2^-(deltaCq), MPZ: 0.0001664
MPZ; replicate 2
  fold induction relative to WT MPZ DMSO, MPZ: 14.9405 fold
  2^-(deltaCq), MPZ: 0.0007308
MPZ; replicate 3
  fold induction relative to WT MPZ DMSO, MPZ: 10.7918 fold
  2^-(deltaCq), MPZ: 0.0005279
[1]
  avg. fold induction, GADD34: 11.3183

## FTWRYQPEGGRDAISIFHYA [MPZ-ecto peptide-eGFP, expressed construct: MPZ ectodomain replaced by the MPZ-ecto peptide, GFP-tagged]
[2]
  PARP cleavage and caspase activity: induced more PARP cleavage and caspase activity than similar or higher levels of the peptides containing Glu substitutions
[2]; listed as WT MPZ-ecto
  PARP cleavage and caspase activity: PARP cleavage and caspase activity measured in cell lysates were increased
[3]; [4]
  Pearson's correlation per cell of GFP-tagged peptide with DR5: 0.23 ± 0.04
  Pearson's correlation per cell of GFP-tagged peptide with ERGIC: 0.18 ± 0.04
[3]; HCT116 expressing GFP-tagged peptide, 24 hr, Mean ± SEM
  Pearson's correlation per cell between DR5 and ERGIC: 0.34 ± 0.03

## RHO-GFP: GFP-tagged rhodopsin expressed from plasmid
[3]; versus 90° rotated images, 24 hr
  overlap (mean Pearson's correlation) with DR5 signal: statistically significant overlap with DR5 signal
